Several values for one entry are separate records, joined by “and”; a condition that tells them apart may be missing. Identical values can stand only once.
Columns and labels:
[1] = Plasma protein binding, rat; format: in vitro ADME; conditions: pH 7.4, read-out: PPB % rat (converted)
Experimental: (§1) Plasma protein binding was determined by equilibrium dialysis using the Pierce Red Device plate with inserts (ThermoScientific). Test compound at 5 μM (0.5% DMSO) spiked in freshly thawed human, rat, mouse, or dog plasma (Bioreclamation INC, Westbury, NY, USA) was dialyzed against phosphate-buffered saline (PBS, pH 7.4) at 37 °C under shaking for 4 h. Aliquots were taken from each side of the well, and matrix matched. Proteins were precipitated with an excess of acetonitrile, samples were mixed and centrifuged, and the supernatant was analyzed by liquid chromatography–mass spectrometry/mass spectrometry (LC–MS/MS). Addition of compound peak areas in the buffer chamber and the plasma chamber was considered to be 100% compound.

[2] = Hepatocyte stability, rat; format: in vitro ADME; conditions: for CLint scaled at 1 μM: read-out: Hep CLint,u rat (converted)
Experimental: (§2) The hepatocyte stability assay was performed by incubation of test compound at 1 μM, 0.03% DMSO in modified Krebs–Henseleit buffer with suspension of pooled cryopreserved hepatocytes (BioIVT, Hicksville, NY, USA) from mouse, rat, dog, or human (BioIVT, Hicksville, NY, USA) at 0.5 million viable hepatocytes/mL. Before adding the hepatocytes (time zero) and after 10, 20, 45, 90, 120, and 180 min of incubation (n = 2) at 37 °C while gently shaking, the reaction was stopped and proteins were precipitated with an excess of acetonitrile containing an internal standard. The samples were mixed, centrifuged, and filtered, and the supernatant was analyzed by liquid chromatography–mass spectrometry/mass spectrometry (LC–MS/MS). The instrument responses (peak areas/IS peak areas) were referenced to the zero-time point samples (considered as 100%) in order to determine the percentage of compound remaining.

[3] = Plasma protein binding, human; format: in vitro ADME; conditions: for fraction unbound at 4 h, 5 μM: human, pH 7.4, human plasma, read-out: PPB % human (converted)
Experimental: as §1

[4] = Hepatocyte stability, dog; format: in vitro ADME; conditions: for CLint scaled at 1 μM: read-out: Hep CLint,u dog (converted)
Experimental: as §2

PK dog = format: in vivo; conditions: for CLu dog: unbound clearance; for clearance: read-out: CLp dog (converted); for Vd: read-out: Vss dog
Experimental: These studies were performed with non-naïve male Beagle dogs (age 13.8 months old, origin: Marshall US, North Rose, NY 14516, USA; age 15.8 months old, origin: Harlan; age 17.7 months old, origin: Harlan). Dogs (n = 3) were dosed iv via a 10 min infusion via a catheter with a dose level of 1 mg/kg. After a washout of 3 days, they were dosed orally as a single gavage with a dose level of 5 or 1 mg/kg in PEG400/MC 0.5% or MC 0.5%. Before administration by the po route, animals were fasted for a period of at least 12 h before treatment, and food was given just after the 3 h of blood sampling. All animals had free access to tap water. Blood samples were taken without an anesthetic from a jugular or cephalic vein into tubes containing lithium heparin as an anticoagulant. Blood samples were taken up to 24 h after the start of the infusion. After centrifugation, the resulting plasma samples were assayed by LC-MS/MS with a nongood laboratory practice (non-GLP)-validated method. PK parameters were calculated by noncompartmental analysis using WinNonlin software (Certara, Princeton, NJ, USA).

(h)H1 = biological target: T1, (h)H1 (Homo sapiens, UniProt P35367); experiment: Radioligand binding, (h)H1 (Eurofins panel); conditions: read-out: IC50, inhibition of radioligand binding to (h)H1
T1 construct: purchased Eurofins
T1 sequence (P35367 whole entry): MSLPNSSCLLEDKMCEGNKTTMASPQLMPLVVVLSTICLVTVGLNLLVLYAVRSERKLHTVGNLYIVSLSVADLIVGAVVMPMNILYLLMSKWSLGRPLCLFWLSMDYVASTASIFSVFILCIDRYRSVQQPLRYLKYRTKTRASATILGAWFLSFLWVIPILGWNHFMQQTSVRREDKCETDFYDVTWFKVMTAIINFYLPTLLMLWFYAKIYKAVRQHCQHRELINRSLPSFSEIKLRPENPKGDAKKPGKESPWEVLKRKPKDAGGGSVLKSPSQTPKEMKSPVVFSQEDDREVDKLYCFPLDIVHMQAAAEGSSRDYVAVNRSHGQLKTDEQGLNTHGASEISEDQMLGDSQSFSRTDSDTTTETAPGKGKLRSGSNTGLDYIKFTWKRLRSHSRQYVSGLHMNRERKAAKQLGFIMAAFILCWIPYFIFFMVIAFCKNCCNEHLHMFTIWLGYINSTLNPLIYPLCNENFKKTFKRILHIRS

[5] = Liver microsomal stability, rat; format: in vitro ADME; conditions: rat; matrix not given; read-out: Clintr,unbound rat (converted)
Experimental: The microsomal stability assay was performed by incubation of test compound at 1 μM, 0.2% DMSO in phosphate buffer with microsomes (0.5 mg/mL) from mouse, rat, dog, or human (Xeno-Tech, Kansas City, KS, USA), and cofactors with final concentrations of 0.6 U/mL glucose-6- phosphate dehydrogenase, 3.3 mM MgCl2, 3.3 mM glucose-6-phosphate, and 1.3 mM nicotinamide adenine dinucleotide phosphate (NADP)+. Before addition of the microsomes (time zero) and after 30 min of incubation at 37 °C with shaking, the reaction was stopped, and proteins were precipitated with an excess of acetonitrile containing an internal standard. The samples were mixed, centrifuged, and filtered, and the supernatant was analyzed by liquid chromatography–mass spectrometry/mass spectrometry (LC–MS/MS). The instrument responses (peak areas/IS peak areas) were referenced to the zero-time point samples (considered as 100%) to determine the percentage of compound remaining. In vitro unbound intrinsic clearance (CLint,u) was calculated from the half-life using the following equations: [drawing 1] [drawing 2] To take into account nonspecific binding, scaled CLint values were corrected with the fraction unbound in microsomes (fu, mic). [drawing 3]
Equilibrium dialysis is a technique used to measure microsomal binding. Briefly, the assay was performed in a 96-well Teflon dialysis unit (Dialysis Device), where each well consists of two chambers separated by a dialysis membrane (membrane strips, MW cutoff 12–14 kDa, HTDialysis). Inactivated liver microsomes (pooled human liver microsomes, Xenotech, protein concentration of 0.5 mg/mL) spiked with a compound (1 μM final concentration, 0.5% DMSO) were added to one chamber and buffer solution (50 mM PBS Buffer) was added to the other side of the well. Each compound was analyzed in duplicate for 4 h at 37 °C. At the end of incubation, both chambers were sampled and analyzed by LC-MS/MS. The unbound microsomal fraction (fu, mic) was calculated as the concentration in buffer divided by the total concentration in the microsomal side. Positive controls included in this assay are terfenadine and verapamil.

CYP2C9 = biological target: T2, CYP2C9 (Homo sapiens, UniProt P11712); experiment: CYP reversible inhibition in HLM, CYP2C9; format: in vitro ADME; conditions: probe diclofenac; read-out: CYP inhibition in HLM IC50, CYP2C9
T2 construct: tissue BD Gentest; host or cells: human liver microsomes
T2 sequence (P11712 whole entry): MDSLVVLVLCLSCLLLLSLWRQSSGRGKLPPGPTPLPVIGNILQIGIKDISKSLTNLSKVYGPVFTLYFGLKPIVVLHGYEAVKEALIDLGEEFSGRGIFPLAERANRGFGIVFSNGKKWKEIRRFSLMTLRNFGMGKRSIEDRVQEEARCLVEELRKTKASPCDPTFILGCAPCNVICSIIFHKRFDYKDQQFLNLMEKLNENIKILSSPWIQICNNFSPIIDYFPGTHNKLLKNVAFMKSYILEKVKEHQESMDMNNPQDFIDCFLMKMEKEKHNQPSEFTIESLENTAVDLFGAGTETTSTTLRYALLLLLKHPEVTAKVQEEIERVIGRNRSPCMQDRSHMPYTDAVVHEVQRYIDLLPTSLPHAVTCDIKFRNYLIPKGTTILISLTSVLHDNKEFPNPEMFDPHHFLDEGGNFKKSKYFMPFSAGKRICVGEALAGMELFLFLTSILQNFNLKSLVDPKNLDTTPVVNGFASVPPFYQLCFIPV
Experimental: Test compounds were diluted in methanol and then added to mixture containing 50 mM potassium phosphate buffer, pH 7.4, human liver microsomes (BD Gentest) and probe substrate. After prewarming for 5 min at 37 °C, the reaction was started by adding cofactor mix (7.65 mg/mL glucose-6-phosphate, 1.7 mg/mL NADP, 6 U/mL of glucose-6-phosphate dehydrogenase), resulting in seven final concentrations of test compounds in the range 0.14–100 μM (2% methanol). Isoform specific conditions regarding probe substrate and microsomal protein concentrations are available in Table 2. Final concentrations of cofactor mix components were as follows: 1.56 mg/mL glucose-6-phosphate, 0.34 mg/mL NADP, and 1.2 U/mL glucose-6-phosphate dehydrogenase. After incubation at 37 °C, the reaction was terminated with acetonitrile:methanol (2:1) solution with internal standard. Samples were centrifuged, and the supernatant fractions were analyzed by LC-MS/MS. The instrument responses (test compounds and internal standard peak areas) were referenced to those for solvent controls (assumed as 100%) in order to determine the percentage reduction in probe metabolism. Percent of control activity vs concentration plots were generated and fitted using GraphPad Prism software to generate IC50.

[6] = male, beagle, plasma, 1 mg/kg, iv

CN(C)S(=O)(=O)NC(=O)c1cc(N2CCC(N3CCOCC3)CC2)c2c(C3CCC3)nn(-c3ccc(F)cc3)c2n1 [Compound 51]
fraction unbound at 4 h, 5 μM [1]: 0.015 | CLint scaled at 1 μM ([2]; pooled cryopreserved hepatocytes in suspension): 49 mL/min/kg | PPB % human ([3]; human plasma): 99% and 98.7% | fraction unbound at 4 h, 5 μM ([3]; plasma): 0.02 | CLint scaled at 1 μM ([4]; pooled cryopreserved hepatocytes in suspension, dog hepatocytes): 31.7 mL/min/kg | CLu dog (PK dog; iv): 202 mL/min/kg | half-life at 24 h (PK dog; male, beagle, plasma, 0.1 mg/kg, iv, read-out: t1/2 iv dog (converted)): 4.9 h | clearance (PK dog; [6]): 2.67 mL/min/kg | Vd (PK dog; [6]): 0.9 L/kg

COC1CCN(C2CCN(c3cc(C(=O)NS(=O)(=O)N(C)C)nc4c3c(C3CCC3)nn4-c3ccc(F)cc3)CC2)CC1 [Compound 52, 3-Cyclobutyl-N-(N,N-dimethylsulfamoyl)-1-(4-fluorophenyl)-4-(4-methoxy-[1,4′-bipiperidin]-1′-yl)-1H-pyrazolo[3,4-b]pyridine-6-carboxamide]
IC50 ((h)H1): 8 µM | mutagenicity (Ames II test): not mutagenic | fraction unbound at 4 h, 5 μM ([1]; rat): 0.016 | CLint scaled at 1 μM [5]: 82.3 mL/min/kg | Hepatocyte stability: %LBF rat ([2]; rat hepatocytes): 30 %LBF | Hepatocyte stability: predicted hepCl rat ([2]; rat hepatocytes, 1 µM): 25.5 mL/min/kg | CLint scaled at 1 μM ([2]; rat hepatocytes): 66.2 mL/min/kg | fraction unbound at 4 h, 5 μM ([3]; human plasma): 0.02 | Hepatocyte stability: %LBF dog ([4]; dog hepatocytes): 14 %LBF | Hepatocyte stability: predicted hepCl dog ([4]; dog hepatocytes, 1 µM): < 5.83 mL/min/kg | CLint scaled at 1 μM ([4]; dog, pooled cryopreserved dog hepatocytes in suspension): < 24.8 mL/min/kg | IC50 (CYP2C9): 1.4 µM | F (%) dog (PK dog; 5 mg/kg po): 59.5% | CLu dog (PK dog; iv): 178 mL/min/kg | clearance (PK dog; [6]): 3.5 mL/min/kg | Vd (PK dog; [6]): 1.37 L/kg | half-life (PK dog; male, beagle, plasma, 1 mg/kg, iv, read-out: t1/2 iv dog (converted)): 5.4 h

Reference: article PMC11017246, “Discovery of GLPG2737, a Potent Type 2 Corrector of CFTR for the Treatment of Cystic Fibrosis in Combination with a Potentiator and a Type 1 Co-corrector” (Journal of Medicinal Chemistry, 2024)
